Experimental data from patent publication US12678471B2 (priority 2022, dated 2026).

System: ACE2-293T cells
Conditions: for Cell viability (%): 10 μM, 24 hours, ACE2-293T cells, vehicle group = 100%, mean ± SD (n = 3); for Cytotoxicity to ACE2-293T cells (result in words): dose of 10 μM

Compound | Cell viability (%) | Cytotoxicity to ACE2-293T cells (result in words)
COc1cc2c3cc1Oc1c(O)c(OC)cc4c1[C@@H](Cc1ccc(O)c(c1)Oc1ccc(cc1)C[C@@H]3N(C)CC2)N(C)CC4 [Obamegine] | 98.19 ± 1.11 | caused no harms to the ACE2-293T cells
Bersavine | 95.42 ± 2.33 | caused no harms to the ACE2-293T cells
COc1cc2c3cc1Oc1c(OC)c(OC)cc4c1[C@@H](Cc1ccc(O)c(c1)Oc1ccc(cc1)C[C@@H]3N(C)CC2)N(C)CC4 [Berbamine] | 98.15 ± 3.04 | caused no harms to the ACE2-293T cells
